In patent US20250332149A1, “PIPERIDINE COMPOUNDS AND PHARMACEUTICAL COMPOSITIONS” (Lumos Pharma, Inc., priority 2024, published 2025):
Where two headings read alike, the source gives them in different places.

Assay: Phase 1 study Part 1: plasma PK and relative bioavailability of LUM-201 tablets vs capsule
Type: in vivo, human
Conditions: for decrease of DNCmax as compared to the 90 mg tablet dose, fasted: statistically significant; for Tmax / AUC(0-inf) / AUC(0-t) / Cmax / half-life: human, plasma
Description: This study in healthy adult subjects was designed to establish the pharmacokinetic (PK) and pharmacodynamic (PD) profiles for the orally administered test product (coated mini-tablets in a capsule) and reference product (mini-tablet) to evaluate relative bioavailability in Part 1 and to evaluate the food effect on the bioavailability of test product (capsule only) in Part 2.
This was a single center, open-label, randomized, Phase 1 study in healthy adult subjects. This study consisted of 2 parts: Part 1 was a 4-sequence, 4-treatment, 4 Treatment Periods, crossover study to determine the relative bioavailability of current tablets to new capsule formulations of LUM-201; Part 2 was a 2-sequence, 2-treatment, 2 Treatment Periods, crossover study to evaluate the food effect on the bioavailability of the new capsule formulation of LUM-201. An individual subject was allowed to participate in only 1 part (Part 1 or Part 2) of the study. Forty subjects were planned and enrolled in this study. • Part 1: A total of 28 subjects were planned and enrolled in Part 1. Part 1 consisted of 4 sequences, each having 4 Treatment Periods enrolling 7 subjects (1:1:1:1 ratio). During Treatment Periods 1 through 4, each subject received 4 single oral doses of LUM-201 drug product in a randomized, crossover order. • Part 2: A total of 12 subjects were planned and enrolled in Part 2. Part 2 consisted of 2 sequences, each having 2 Treatment Periods enrolling 6 subjects (1:1 ratio). Each subject received a single oral dose of LUM-201 at each Treatment Period. During Treatment Periods 1 and 2, each subject received 2 single oral doses of LUM-201 in a randomized, crossover order. • On Day 1 of Treatment Period 1, subjects were administered the assigned treatment (A or B) as randomized, followed by a washout of at least 3 days between Treatment Periods 1 and 2. Subjects stayed in-house (not discharged) between the Treatment Periods. • Treatment A was dosed at 85.3 mg capsule formulation of LUM-201 (intact capsule consumed unopened) consumed while subject was in a fasted state with 240 mL of water. • Treatment B was dosed at 85.3 mg capsule formulation of LUM-201 (intact capsule consumed unopened) consumed 30 minutes after start of a high-fat meal with 240 mL of water. • Subjects were discharged from the study center on the morning of Day 3 of Treatment Period 2 after the scheduled study assessments had been completed.
• Treatment A (reference): five 18 mg oral tablets of LUM-201 were administered under fasted state with 240 mL of water. • Treatment B (test): a single 85.3 mg dose of oral capsule formulation of LUM-201 was administered as a whole capsule under fasted state with 240 mL of water. • Treatment C (test): a single 85.3 mg dose of oral capsule formulation of LUM-201 was administered by dosing capsule contents (dry) under fasted state with 240 mL of water. • Treatment D (test): a single 85.3 mg dose of oral capsule formulation of LUM-201 was mixed (capsule contents) with banana puree (2 teaspoons), followed by 240 mL of water and was ingested within 5 minutes under fasted state (Note: Banana Puree, single serve cup was used [118.3 mL]). […]

[1] = Part 1, Treatment D (test): 85.3 mg capsule contents in banana puree, oral, fasted
[2] = Part 1, Treatment D (test): 85.3 mg capsule contents in banana puree, oral, fasted, ANOVA
[3] = test Treatment B (85.3 mg whole capsule, fasted) to reference Treatment A (90 mg tablets, fasted)
[4] = test Treatment C (85.3 mg capsule contents in dosing cup, fasted) to reference Treatment A (90 mg tablets, fasted)
[5] = test Treatment D (85.3 mg capsule contents in banana puree) to reference Treatment A (90 mg tablets, fasted)

CC(C)(N)C(=O)N[C@H](COCc1ccccc1)C(=O)N1CCC2(CC1)CN(S(C)(=O)=O)c1ccccc12 [LUM-201, N-[1(R)-[(1,2-dihydro-1-methanesulfonylspiro[3H-indole-3,4′-piperdin]-yl)carbonyl]-2-(phenylmethyloxy)ethyl]-2-amino-2-methylpropanamide methanesulfonate]
DNAUC0-last, Geometric Mean [1]: 6.276 ng·h/mL/mg | DNCmax, Arithmetic Mean [1]: 1.422 ng/mL/mg | DNCmax, Geometric Mean [1]: 1.087 ng/mL/mg | t1/2, Geometric Mean [1]: 8.09 h | tlag, Median [1]: 0 h | tlast, Median [1]: 48.02 h | λz, Arithmetic Mean [1]: 0.0872 h⁻¹ | λz, Geometric Mean [1]: 0.0856 h⁻¹ | DNAUC0-inf, GLS Mean [2]: 6.38 ng·h/mL/mg | DNAUC0-last, GLS Mean [2]: 6.26 ng·h/mL/mg | DNCmax, GLS Mean [2]: 1.08 ng/mL/mg | decrease of DNCmax as compared to the 90 mg tablet dose, fasted (Treatment B: 85.3 mg whole capsule, fasted): 14.1% | decrease of DNCmax as compared to the 90 mg tablet dose, fasted (Treatment C: 85.3 mg capsule contents in a dosing cup, fasted): 20.4% | decrease of DNCmax as compared to the 90 mg tablet dose, fasted (Treatment D: 85.3 mg capsule contents in banana puree): 14.4% | Tmax (oral, Part 1, post-dose, Treatments A to D, read-out: median tmax, range over all four treatments): 0.782 to 1.23 h | AUC(0-inf) (po, 85.3 mg, Part 1, Treatment B (test): 85.3 mg whole capsule, oral, fasted, read-out: AUC0-inf, Arithmetic Mean): 566 ng·h/mL | AUC(0-inf) (po, 85.3 mg, Part 1, Treatment B (test): 85.3 mg whole capsule, oral, fasted, read-out: AUC0-inf, Geometric Mean): 512 ng·h/mL | AUC(0-t) (po, 85.3 mg, Part 1, Treatment B (test): 85.3 mg whole capsule, oral, fasted, read-out: AUC0-last, Arithmetic Mean): 557 ng·h/mL | AUC(0-t) (po, 85.3 mg, Part 1, Treatment B (test): 85.3 mg whole capsule, oral, fasted, read-out: AUC0-last, Geometric Mean): 504 ng·h/mL | Cmax (po, 85.3 mg, Part 1, Treatment B (test): 85.3 mg whole capsule, oral, fasted, read-out: Cmax, Arithmetic Mean): 115 ng/mL | Cmax (po, 85.3 mg, Part 1, Treatment B (test): 85.3 mg whole capsule, oral, fasted, read-out: Cmax, Geometric Mean): 93.2 ng/mL | half-life (po, 85.3 mg, Part 1, Treatment B (test): 85.3 mg whole capsule, oral, fasted, read-out: t1/2, Arithmetic Mean (converted)): 8.19 h | half-life (po, 85.3 mg, Part 1, Treatment B (test): 85.3 mg whole capsule, oral, fasted, read-out: t1/2, Geometric Mean (converted)): 8.06 h | Tmax (po, 85.3 mg, Part 1, Treatment B (test): 85.3 mg whole capsule, oral, fasted, read-out: tmax, Median): 1.23 h | AUC(0-inf) (po, 85.3 mg, Part 1, Treatment C (test): 85.3 mg capsule contents (dry), oral, fasted, read-out: AUC0-inf, Arithmetic Mean): 583 ng·h/mL | AUC(0-inf) (po, 85.3 mg, Part 1, Treatment C (test): 85.3 mg capsule contents (dry), oral, fasted, read-out: AUC0-inf, Geometric Mean): 534 ng·h/mL | AUC(0-t) (po, 85.3 mg, Part 1, Treatment C (test): 85.3 mg capsule contents (dry), oral, fasted, read-out: AUC0-last, Arithmetic Mean): 573 ng·h/mL | AUC(0-t) (po, 85.3 mg, Part 1, Treatment C (test): 85.3 mg capsule contents (dry), oral, fasted, read-out: AUC0-last, Geometric Mean): 524 ng·h/mL | Cmax (po, 85.3 mg, Part 1, Treatment C (test): 85.3 mg capsule contents (dry), oral, fasted, read-out: Cmax, Arithmetic Mean): 98.9 ng/mL | Cmax (po, 85.3 mg, Part 1, Treatment C (test): 85.3 mg capsule contents (dry), oral, fasted, read-out: Cmax, Geometric Mean): 86.5 ng/mL | half-life (po, 85.3 mg, Part 1, Treatment C (test): 85.3 mg capsule contents (dry), oral, fasted, read-out: t1/2, Arithmetic Mean (converted)): 8.58 h | half-life (po, 85.3 mg, Part 1, Treatment C (test): 85.3 mg capsule contents (dry), oral, fasted, read-out: t1/2, Geometric Mean (converted)): 8.47 h | Tmax (po, 85.3 mg, Part 1, Treatment C (test): 85.3 mg capsule contents (dry), oral, fasted, read-out: tmax, Median): 1.12 h | AUC(0-inf) (po, 85.3 mg, Part 1, Treatment D (test): 85.3 mg capsule contents in banana puree, oral, fasted, read-out: AUC0-inf, Arithmetic Mean): 629 ng·h/mL | AUC(0-inf) (po, 85.3 mg, Part 1, Treatment D (test): 85.3 mg capsule contents in banana puree, oral, fasted, read-out: AUC0-inf, Geometric Mean): 546 ng·h/mL | AUC(0-t) (po, 85.3 mg, Part 1, Treatment D (test): 85.3 mg capsule contents in banana puree, oral, fasted, read-out: AUC0-last, Arithmetic Mean): 619 ng·h/mL | AUC(0-t) (po, 85.3 mg, Part 1, Treatment D (test): 85.3 mg capsule contents in banana puree, oral, fasted, read-out: AUC0-last, Geometric Mean): 535 ng·h/mL | Cmax (po, 85.3 mg, Part 1, Treatment D (test): 85.3 mg capsule contents in banana puree, oral, fasted, read-out: Cmax, Arithmetic Mean): 121 ng/mL | Cmax (po, 85.3 mg, Part 1, Treatment D (test): 85.3 mg capsule contents in banana puree, oral, fasted, read-out: Cmax, Geometric Mean): 92.7 ng/mL | half-life (po, 85.3 mg, Part 1, Treatment D (test): 85.3 mg capsule contents in banana puree, oral, fasted, read-out: t1/2, Arithmetic Mean (converted)): 8.23 h | half-life (po, 85.3 mg, Part 1, Treatment D (test): 85.3 mg capsule contents in banana puree, oral, fasted, read-out: t1/2, Geometric Mean (converted)): 8.1 h | Tmax (po, 85.3 mg, Part 1, Treatment D (test): 85.3 mg capsule contents in banana puree, oral, fasted, read-out: tmax, Median): 1.03 h | AUC(0-inf) (po, 90 mg, Part 1, Treatment A (reference): five 18 mg tablets (90 mg), oral, fasted, read-out: AUC0-inf, Arithmetic Mean): 630 ng·h/mL | AUC(0-inf) (po, 90 mg, Part 1, Treatment A (reference): five 18 mg tablets (90 mg), oral, fasted, read-out: AUC0-inf, Geometric Mean): 562 ng·h/mL | AUC(0-t) (po, 90 mg, Part 1, Treatment A (reference): five 18 mg tablets (90 mg), oral, fasted, read-out: AUC0-last, Arithmetic Mean): 620 ng·h/mL | AUC(0-t) (po, 90 mg, Part 1, Treatment A (reference): five 18 mg tablets (90 mg), oral, fasted, read-out: AUC0-last, Geometric Mean): 552 ng·h/mL | Cmax (po, 90 mg, Part 1, Treatment A (reference): five 18 mg tablets (90 mg), oral, fasted, read-out: Cmax, Arithmetic Mean): 132 ng/mL | Cmax (po, 90 mg, Part 1, Treatment A (reference): five 18 mg tablets (90 mg), oral, fasted, read-out: Cmax, Geometric Mean): 114 ng/mL | half-life (po, 90 mg, Part 1, Treatment A (reference): five 18 mg tablets (90 mg), oral, fasted, read-out: t1/2, Arithmetic Mean (converted)): 7.95 h | half-life (po, 90 mg, Part 1, Treatment A (reference): five 18 mg tablets (90 mg), oral, fasted, read-out: t1/2, Geometric Mean (converted)): 7.83 h | Tmax (po, 90 mg, Part 1, Treatment A (reference): five 18 mg tablets (90 mg), oral, fasted, read-out: tmax, Median): 0.782 h | DNAUC0-inf, Geo LSM Ratio % [3]: 95.50% | DNAUC0-last, Geo LSM Ratio % [3]: 95.50% | DNCmax, Geo LSM Ratio % [3]: 85.90% | DNAUC0-inf, Geo LSM Ratio % [4]: 99.50% | DNAUC0-last, Geo LSM Ratio % [4]: 99.40% | DNCmax, Geo LSM Ratio % [4]: 79.60% | DNAUC0-inf, Geo LSM Ratio % [5]: 102.20% | DNAUC0-last, Geo LSM Ratio % [5]: 102.00% | DNCmax, Geo LSM Ratio % [5]: 85.60%
